Results as given in patent publication US8486965B2, “Pyrrolo[2,3-b]pyridine derivative and use thereof for treatment of cancer” (Takeda Pharmaceutical Company Limited, priority 2009, dated 2013).

Test system: Hedgehog signal transduction system (Smo)
Experiment: Gli reporter luciferase assay in NIH-3T3/Gli reporter cells stimulated with mouse Shh-N end fragment
Format: cell-based
Conditions: NIH3T3; 1 μM compound; NIH-3T3/Gli reporter cells with mouse Shh-N end fragment culture supernatant, 48 hr; luciferase activity, control without compound as 100; read-out: inhibition rate (%) at 1 μM
Excerpt: Inhibition of the Hedgehog signal transduction system can be measured, for example, by quantifying a decrease in the expression level of a reporter gene connected to the downstream of the Gli binding site based on the fluorescence intensity according to the following Experimental Example 1. Alternatively, it can be measured by quantifying the expression of Gli-1 mRNA in a cell extract by quantitative PCR method and the like. A compound that inhibits Hedgehog signal targets Smo, which can be confirmed, for example, by binding fluorescence-labeled Cyclopamine and a test compound to cells expressing Smo, measuring the fluorescence level of the cell, and comparing the value with that without addition of a test compound to find a decrease.
Gli reporter plasmid was constructed by inserting 8×Gli-binding site and chicken δ-crystalline promoter into the upstream of luc+ of pGL3 (Promega).
prepared in reference to the base sequence described in GenBank accession No.; X02187, and chicken genome DNA (Clontech) as a template. PCR reaction was performed using Pfu Turbo (Stratagene) and following the attached protocol. The obtained 108 bp fragment was digested with restriction enzymes BglII and HindIII, and inserted into BglII-HindIII site of pGL3 to give plasmid pGL3/δ-cry promoter.
As 8× Gli-binding site, a sequence containing eight 9-bp Gli bound consensus sequences (GACCACCCA) described in Yoon et al., J. Biol. Chem., vol. 273, pages 3496-3501 (1998) was prepared from synthetic DNA. That is, two synthetic DNAs,
were heat treated at 95° C. for 2 minutes, and incubated at 37° C. for 1 hr for annealing to give a double stranded DNA of the above-mentioned two synthetic DNAs. The obtained double stranded DNA was digested with restriction enzymes BglII and KpnI, and the obtained DNA fragment was inserted into BglII-KpnI site of pGL3/δ-cry promoter to construct plasmid pGL3/δ-cry promoter, 8× Gli binding site, i.e., Gli reporter plasmid. 2. Construction of Plasmid for Expression of Mouse Shh-N End Fragment
As a material for construction of plasmid for Shh-N end fragment expression, mouse Shh cDNA was cloned at first.
The mouse Shh cDNA was cloned by Nested PCR method using mouse 11-day fetus cDNA (Clontech) as a template. The primer sequence was prepared in reference to the base sequence described in GenBank accession No.; NM_009170.
Using the mouse Shh cDNA sequence obtained as mentioned above as a template, a partial cDNA sequence wherein stop codon (TGA) was added to 3′-terminal of cDNA sequence encoding 1st to 198th amino acid sequence of mouse Shh was obtained by PCR method. As the primer set,
In the manner mentioned above, a plasmid for mouse Shh-N end fragment expression, pcDNA3.1/mShh-N, was constructed.
HEK293 cells were grown in D-MEM medium (Invitrogen) containing 10% fetal bovine serum in a 10 cm dish and pcDNA3.1/mShh-N was introduced into the cells using FuGENE6 (Roche Applied Science). Thereafter, the HEK293 cells were cultured in a carbon dioxide gas incubator at 37° C. for 24 hours, and the medium was exchanged with D-MEM medium (Invitrogen) containing 2% fetal bovine serum. After culturing for 48 hr, culture supernatant containing recombinant type mouse Shh-N end fragment was obtained by filtration using a filter ([…]).
Using D-MEM (Invitrogen) containing 10% fetal bovine serum, expression plasmid pcDNA3:1 and Gli reporter plasmid (pGL3/δ-cry promoter, 8× Gli binding site) produced by the method of Experimental Example 1 were introduced into NIH-3T3 cells grown in a 10 cm dish by the use of FuGENE6 (Roche Applied Science).
After culture for 24 hr, the cells were recovered, suspended in D-MEM medium containing 10% fetal bovine serum and supplemented with Geneticin (Life Technologies Oriental, Inc.) to a final concentration of 500 μg/ml, diluted to 10^4 cells/ml, plated on a 96 well plate, and cultured in a carbon dioxide gas incubator at 37° C. to give Geneticin resistant transformed cell line. […]

CCc1nc2c(cc1NC(=O)c1ccsc1)c(OC(C)C)c(C(=O)NC1CCN(C(=O)CO)CC1)n2C [Example 61, 6-ethyl-N-[1-(hydroxyacetyl)piperidin-4-yl]-1-methyl-3-(1-methylethoxy)-5-[(thiophen-3-ylcarbonyl)amino]-1H-pyrrolo[2,3-b]pyridine-2-carboxamide]
inhibition at 1 µM: 98%

CCc1nc2c(cc1NC(=O)c1cscc1OC)c(OC(C)C)c(C(=O)NC1CCN(C(=O)CO)CC1)n2C [Example 62, 6-ethyl-N-[1-(hydroxyacetyl)piperidin-4-yl]-5-{[(4-methoxythiophene-3-yl)carbonyl]amino}-1-methyl-3-(1-methylethoxy)-1H-pyrrolo[2,3-b]pyridine-2-carboxamide]
inhibition at 1 µM: 98%

CCc1nc2c(cc1NC(=O)c1ccccc1F)c(OCC(F)(F)F)c(C(=O)NC1CCN(C(=O)CO)CC1)n2C [Example 22, 6-ethyl-5-{[(2-fluorophenyl)carbonyl]amino}-N-[1-(hydroxyacetyl)piperidin-4-yl]-1-methyl-3-(2,2,2-trifluoroethoxy)-1H-pyrrolo[2,3-b]pyridine-2-carboxamide]
inhibition at 1 µM: 93%

CCOc1c(C(=O)NC2CCN(C(=O)CO)CC2)n(C)c2nc(CC)c(NC(=O)c3ccc(F)cc3)cc12 [Example 39, 3-ethoxy-6-ethyl-5-{[(4-fluorophenyl)carbonyl]amino}-N-[1-(hydroxyacetyl)piperidin-4-yl]-1-methyl-1H-pyrrolo[2,3-b]pyridine-2-carboxamide]
inhibition at 1 µM: 96%

CCOc1c(C(=O)NC2CCN(C(=O)CO)CC2)n(C)c2nc(CC)c(NC(=O)c3ccccc3)cc12 [Example 45, 3-ethoxy-6-ethyl-N-[1-(hydroxyacetyl)piperidin-4-yl]-1-methyl-5-[(phenylcarbonyl)amino]-1H-pyrrolo[2,3-b]pyridine-2-carboxamide]
inhibition at 1 µM: 98%

Cc1cc2c(nc1-c1ccccc1)c(OCC(F)(F)F)c(C(=O)NC1CCN(C(=O)CO)CC1)n2C [Example 136, N-[1-(hydroxyacetyl)piperidin-4-yl]-1,6-dimethyl-5-phenyl-3-(2,2,2-trifluoroethoxy)-1H-pyrrolo[3,2-b]pyridine-2-carboxamide]
inhibition at 1 µM: 95%

CCc1nc2c(cc1NC(=O)c1cccs1)c(OCC(F)(F)F)c(C(=O)NC1CCN(C(=O)CO)CC1)n2C [Example 29, 6-ethyl-N-[1-(hydroxyacetyl)piperidin-4-yl]-1-methyl-5-[(thiophen-2-ylcarbonyl)amino]-3-(2,2,2-trifluoroethoxy)-1H-pyrrolo[2,3-b]pyridine-2-carboxamide]
inhibition at 1 µM: 95%

CCc1nc2c(nc1NC(=O)c1ccccc1)c(OC(C)C)c(C(=O)NC1CCN(C(=O)CO)CC1)n2C [Example 163, 3-ethyl-N-[1-(hydroxyacetyl)piperidin-4-yl]-5-methyl-7-(1-methylethoxy)-2-[(phenylcarbonyl)amino]-5H-pyrrolo[2,3-b]pyrazine-6-carboxamide]
inhibition at 1 µM: 98%

CCc1nc2c(cc1NC(=O)c1ccoc1)c(OCC(F)(F)F)c(C(=O)NC1CCN(C(=O)CO)CC1)n2C [Example 54, 6-ethyl-5-[(furan-3-ylcarbonyl)amino]-N-[1-(hydroxyacetyl)piperidin-4-yl]-1-methyl-3-(2,2,2-trifluoroethoxy)-1H-pyrrolo[2,3-b]pyridine-2-carboxamide]
inhibition at 1 µM: 99%

Cc1nc2c(cc1NC(=O)c1ccc(F)cc1)c(OCC(F)(F)F)c(C(=O)NC1CCN(C(=O)CO)CC1)n2C [Example 48, 5-{[(4-fluorophenyl)carbonyl]amino}-N-[1-(hydroxyacetyl)piperidin-4-yl]-1,6-dimethyl-3-(2,2,2-trifluoroethoxy)-1H-pyrrolo[2,3-b]pyridine-2-carboxamide]
inhibition at 1 µM: 97%

CCc1nc2c(cc1NC(=O)c1ccccc1)c(OCC(F)(F)F)c(C(=O)NC1CCN(C(=O)CO)CC1)n2C [Example 7, 6-ethyl-N-[1-(hydroxyacetyl)piperidin-4-yl]-1-methyl-5-[(phenylcarbonyl)amino]-3-(2,2,2-trifluoroethoxy)-1H-pyrrolo[2,3-b]pyridine-2-carboxamide]
inhibition at 1 µM: 96%
